Assay results: ChEMBL document CHEMBL1649565, “Besifloxacin, a novel fluoroquinolone, has broad-spectrum in vitro activity against aerobic and anaerobic bacteria” (Antimicrob Agents Chemother, 2009)
Calls of active or inactive are those of the source. No cut-off for these calls is given here.

Legend:
[1] = tested on: Klebsiella pneumoniae; experiment: Antibacterial activity against Klebsiella pneumoniae by CLSI M7-A7 method; assay type: functional
[2] = tested on: Serratia marcescens; experiment: Antibacterial activity against levofloxacin susceptible Serratia marcescens assessed as percent susceptible isolates by CLSI M7-A7 method; assay type: functional
[3] = tested on: Streptococcus agalactiae; experiment: Antibacterial activity against Streptococcus agalactiae by CLSI M100-S18 method; assay type: functional
[4] = tested on: Acinetobacter lwoffii; experiment: Antibacterial activity against Acinetobacter lwoffii by CLSI M7-A7 method; assay type: functional
[5] = tested on: Staphylococcus aureus; experiment: Antibacterial activity against non-ciprofloxacin-susceptible and methicillin-susceptible Staphylococcus aureus by CLSI M100-S18 method; assay type: functional
[6] = tested on: Staphylococcus hominis; experiment: Antibacterial activity against Staphylococcus hominis assessed as percent susceptible isolates by CLSI M100-S18 method; assay type: functional
[7] = tested on: Proteus vulgaris; experiment: Antibacterial activity against Proteus vulgaris assessed as percent susceptible isolates by CLSI M7-A7 method; assay type: functional
[8] = tested on: Streptococcus intermedius; experiment: Antibacterial activity against Streptococcus intermedius by CLSI M100-S18 method; assay type: functional
[9] = tested on: Staphylococcus epidermidis; experiment: Antibacterial activity against ciprofloxacin-susceptible and methicillin-resistant Staphylococcus epidermidis assessed as percent susceptible isolates by CLSI M100-S18 method; assay type: functional
[10] = tested on: Staphylococcus epidermidis; experiment: Antibacterial activity against ciprofloxacin-susceptible and methicillin-resistant Staphylococcus epidermidis by CLSI M100-S18 method; assay type: functional
[11] = tested on: Streptococcus sp.; experiment: Antibacterial activity against Lancefield Streptococcus sp. group F by CLSI M100-S18 method; assay type: functional
[12] = tested on: Streptococcus sanguinis; experiment: Antibacterial activity against Streptococcus sanguinis by CLSI M100-S18 method; assay type: functional
[13] = tested on: Stenotrophomonas maltophilia; experiment: Antibacterial activity against non-levofloxacin susceptible Stenotrophomonas maltophilia by CLSI M7-A7 method; assay type: functional
[14] = tested on: Enterobacter cloacae; experiment: Antibacterial activity against Enterobacter cloacae assessed as percent susceptible isolates by CLSI M7-A7 method; assay type: functional
[15] = tested on: Proteus mirabilis; experiment: Antibacterial activity against Proteus mirabilis assessed as percent susceptible isolates by CLSI M7-A7 method; assay type: functional
[16] = tested on: Staphylococcus saprophyticus; experiment: Antibacterial activity against Staphylococcus saprophyticus assessed as percent susceptible isolates by CLSI M100-S18 method; assay type: functional
[17] = tested on: Streptococcus constellatus; experiment: Antibacterial activity against Streptococcus constellatus by CLSI M100-S18 method; assay type: functional
[18] = tested on: Staphylococcus aureus; experiment: Antibacterial activity against ciprofloxacin-susceptible and methicillin-resistant Staphylococcus aureus assessed as percent susceptible isolates by CLSI M100-S18 method; assay type: functional
[19] = tested on: Morganella morganii; experiment: Antibacterial activity against Morganella morganii by CLSI M7-A7 method; assay type: functional
[20] = tested on: Staphylococcus epidermidis; experiment: Antibacterial activity against non-ciprofloxacin-susceptible and methicillin-susceptible Staphylococcus epidermidis by CLSI M100-S18 method; assay type: functional
[21] = tested on: Moraxella catarrhalis; experiment: Antibacterial activity against Moraxella catarrhalis by CLSI M7-A7 method; assay type: functional
[22] = tested on: Staphylococcus aureus; experiment: Antibacterial activity against non-ciprofloxacin-susceptible and methicillin-susceptible Staphylococcus aureus assessed as percent susceptible isolates by CLSI M100-S18 method; assay type: functional
[23] = tested on: Streptococcus pneumoniae; experiment: Antibacterial activity against levofloxacin susceptible Streptococcus pneumoniae assessed as percent susceptible isolates by CLSI M100-S18 method; assay type: functional
[24] = tested on: Citrobacter freundii; experiment: Antibacterial activity against Citrobacter freundii by CLSI M7-A7 method; assay type: functional
[25] = tested on: Enterobacter cloacae; experiment: Antibacterial activity against Enterobacter cloacae by CLSI M7-A7 method; assay type: functional
[26] = tested on: Streptococcus oralis; experiment: Antibacterial activity against Streptococcus oralis by CLSI M100-S18 method; assay type: functional
[27] = tested on: Acinetobacter calcoaceticus; experiment: Antibacterial activity against Acinetobacter calcoaceticus by CLSI M7-A7 method; assay type: functional
[28] = tested on: Staphylococcus epidermidis
[29] = tested on: Serratia marcescens; experiment: Antibacterial activity against Serratia marcescens by CLSI M7-A7 method; assay type: functional
[30] = tested on: Staphylococcus saprophyticus; experiment: Antibacterial activity against Staphylococcus saprophyticus by CLSI M100-S18 method; assay type: functional
[31] = tested on: Streptococcus pyogenes; experiment: Antibacterial activity against Streptococcus pyogenes by CLSI M100-S18 method; assay type: functional
[32] = tested on: Streptococcus pneumoniae; experiment: Antibacterial activity against levofloxacin-susceptible Streptococcus pneumoniae by CLSI M100-S18 method; assay type: functional
[33] = tested on: Acinetobacter baumannii; experiment: Antibacterial activity against Acinetobacter baumannii by CLSI M7-A7 method; assay type: functional
[34] = tested on: Stenotrophomonas maltophilia; experiment: Antibacterial activity against levofloxacin-susceptible Stenotrophomonas maltophilia by CLSI M7-A7 method; assay type: functional
[35] = tested on: Staphylococcus warneri; experiment: Antibacterial activity against Staphylococcus warneri assessed as percent susceptible isolates by CLSI M100-S18 method; assay type: functional
[36] = tested on: Streptococcus salivarius; experiment: Antibacterial activity against Streptococcus salivarius by CLSI M100-S18 method; assay type: functional
[37] = tested on: Streptococcus equinus; experiment: Antibacterial activity against Streptococcus bovis by CLSI M100-S18 method; assay type: functional
[38] = tested on: Staphylococcus epidermidis; experiment: Antibacterial activity against non-ciprofloxacin-susceptible and methicillin-susceptible Staphylococcus epidermidis assessed as percent susceptible isolates by CLSI M100-S18 method; assay type: functional
[39] = tested on: Klebsiella aerogenes; experiment: Antibacterial activity against Enterobacter aerogenes assessed as percent susceptible isolates by CLSI M7-A7 method; assay type: functional
[40] = Antibacterial activity against Lancefield Streptococcus sp. 'group G' by CLSI M100-S18 method; assay type: functional
[41] = tested on: Staphylococcus haemolyticus; experiment: Antibacterial activity against Staphylococcus haemolyticus assessed as percent susceptible isolates by CLSI M100-S18 method; assay type: functional
[42] = tested on: Proteus mirabilis; experiment: Antibacterial activity against Proteus mirabilis by CLSI M7-A7 method; assay type: functional
[43] = tested on: Staphylococcus warneri; experiment: Antibacterial activity against Staphylococcus warneri by CLSI M100-S18 method; assay type: functional
[44] = tested on: Staphylococcus haemolyticus; experiment: Antibacterial activity against Staphylococcus haemolyticus by CLSI M100-S18 method; assay type: functional
[45] = tested on: Haemophilus influenzae; experiment: Antibacterial activity against ciprofloxacin-susceptible Haemophilus influenzae assessed as percent susceptible isolates by CLSI M7-A7 method; assay type: functional
[46] = tested on: Klebsiella pneumoniae; experiment: Antibacterial activity against Klebsiella pneumoniae assessed as percent susceptible isolates by CLSI M7-A7 method; assay type: functional
[47] = Antibacterial activity against Lancefield Streptococcus sp. 'group C' by CLSI M100-S18 method; assay type: functional

C[C@H]1COc2c(N3CCN(C)CC3)c(F)cc3c(=O)c(C(=O)O)cn1c23.C[C@H]1COc2c(N3CCN(C)CC3)c(F)cc3c(=O)c(C(=O)O)cn1c23.O [LEVOFLOXACIN]
MIC50 [1]: 0.06 µg/mL | MIC90 [1]: 2 µg/mL | Activity [2]: 100% | MIC [3]: 0.5 µg/mL | MIC50 [3]: 0.5 µg/mL | MIC90 [3]: 0.5 µg/mL | MIC50 [4]: 0.12 µg/mL | MIC90 [4]: 4 µg/mL | MIC50 [5]: > 8 µg/mL | MIC90 [5]: > 8 µg/mL | Activity [6]: 30% | Activity [7]: 100% | MIC50 [8]: 1 µg/mL | MIC90 [8]: 4 µg/mL | Activity [9]: 100% | MIC [10]: 0.12 µg/mL | MIC50 [10]: 0.12 µg/mL | MIC50 [11]: 0.5 µg/mL | MIC90 [11]: 0.5 µg/mL | MIC50 [12]: 1 µg/mL | MIC90 [12]: 4 µg/mL | MIC [13]: 0.12 µg/mL | Activity [14]: 92% | Activity [15]: 76% | Activity [16]: 100% | MIC50 [17]: 1 µg/mL | MIC90 [17]: 4 µg/mL | Activity [18]: 100% | MIC50 [19]: 0.06 µg/mL | MIC90 [19]: 8 µg/mL | MIC50 [20]: 8 µg/mL | MIC50 [21]: 0.015 µg/mL | MIC90 [21]: 0.015 µg/mL | Activity [22]: 0% | Activity [23]: 100% | MIC50 [24]: 0.06 µg/mL | MIC90 [24]: 2 µg/mL | MIC50 [25]: 0.03 µg/mL | MIC90 [25]: 0.25 µg/mL | MIC50 [26]: 1 µg/mL | MIC90 [26]: 4 µg/mL | MIC50 [27]: 0.5 µg/mL | MIC90 [27]: 8 µg/mL | MIC90 [28]: inactive | MIC50 [29]: 0.12 µg/mL | MIC90 [29]: 0.5 µg/mL | MIC50 [30]: 0.25 µg/mL | MIC90 [30]: 0.5 µg/mL | MIC50 [31]: 0.5 µg/mL | MIC90 [31]: 0.5 µg/mL | MIC50 [32]: 0.5 µg/mL | MIC90 [32]: 0.5 µg/mL | MIC50 [33]: 8 µg/mL | MIC90 [33]: 64 µg/mL | MIC [34]: 4 µg/mL | Activity [35]: 74% | MIC50 [36]: 1 µg/mL | MIC90 [36]: 4 µg/mL | MIC50 [37]: 1 µg/mL | MIC90 [37]: 4 µg/mL | Activity [38]: 0% | Activity [39]: 80% | MIC50 [40]: 0.5 µg/mL | MIC90 [40]: 0.5 µg/mL | Activity [41]: 37.6% | MIC50 [42]: 0.03 µg/mL | MIC90 [42]: 8 µg/mL | MIC50 [43]: 0.12 µg/mL | MIC90 [43]: > 8 µg/mL | MIC50 [44]: 4 µg/mL | MIC90 [44]: > 8 µg/mL | Activity [45]: 100% | Activity [46]: 91% | MIC50 [47]: 0.5 µg/mL | MIC90 [47]: 0.5 µg/mL
